# Laboratory results taken from patent publication US12508259B2, “Pharmaceutical formulations containing Nalbuphine” (Humanwell Pharmaceutical US, Inc., priority 2022, dated 2025).
# Counter-ions that a name gives are not always drawn. Like-named read-outs stand apart in the source and are kept apart here.
# Legend:
# [1] = Nalbuphine solubility in different acids (overnight stirring, HPLC); type: physicochemical; conditions: approx. 0.5 mmol/mL acid; for solubility: aqueous buffer, thermodynamic from solid, Nalbuphine base Solubility
# Protocol: A preliminary assessment of Nalbuphine solubility in different acids was performed. After overnight continuous stirring, the suspensions were centrifuged, and supernatants were filtered through a 0.2 μm filter.
# [2] = commercially available Nalbuphine hydrochloride; cited from earlier work
SMILES,"solubility ([1]; DL-malic acid solution, in DL-Malic acid) [mM]","solubility ([1]; acetic acid solution, in Acetic acid) [mM]","solubility ([1]; citric acid solution, in Citric acid) [mM]","solubility ([1]; hydrochloric acid solution, in Hydrochloride acid) [mM]",Nalbuphine base Solubility ([1]; in Citric acid) [mM],Nalbuphine base Solubility ([1]; in Sulfuric acid) [mM],"solubility ([1]; lactic acid solution, in Lactic acid) [mM]","solubility ([1]; phosphoric acid solution, in Phosphoric acid) [mM]","solubility ([1]; succinic acid solution, in Succinic acid) [mM]","solubility ([1]; sulfuric acid solution, in Sulfuric acid) [mM]","solubility ([1]; tartaric acid solution, in Tartaric acid) [mM]",solubility [2]
"Oc1ccc2c3c1O[C@H]1[C@@H](O)CC[C@@]4(O)[C@@H](C2)N(CC2CCC2)CC[C@]314 [Nalbuphine base, N-cyclobutylmethyl-14-hydroxydihydronormorphine]",630,420,> 1000,90,1070,~1120,460,530,480,> 1000,930,
Oc1ccc2c3c1O[C@H]1[C@@H](O)CC[C@@]4(O)[C@@H](C2)N(CC2CCC2)CC[C@]314 [Nalbuphine hydrochloride],,,,,,,,,,,,approximately 30 mg/mL
